# Measured values taken from patent US20220048888A1, “PYRIMIDINYL-HETEROARYLOXY-NAPHTHYL COMPOUNDS AND METHODS OF USE” (Genentech, Inc., priority 2018, published 2022).
# Target: T1, kinase domain of IRE1 alpha (Homo sapiens, UniProt O75460, D688N)
# T1 construct: (KR, AA G547-L977, D688N); made in house; host or cells: Sf9 insect cells
# Experiment: IRE1α TR-FRET competition binding assay
# Settings: Kinase Tracer 236 0.1 μM; kinase dead IRE1 alpha KR construct
# Protocol: To determine the affinity of compound binding to the kinase domain of IRE1 alpha, a Time Resolved Fluorescence Resonance Energy Transfer (TR-FRET) competition assay was used. A His-tagged IRE1 alpha kinase dead construct containing the kinase and RNase domains (KR, AA G547-L977, D688N) was expressed in Sf9 insect cells. The purified protein (final concentration 0.006 OA micromolar) was pre-incubated with anti-His Europium labeled antibody (Life Technologies PV5596, final concentration 0.002 OA micromolar) for one hour at 4° C. in 1×TR-FRET Assay Buffer (50 mM HEPES, pH 7.5, 10 mM MgCl2, 0.083 mM Brij 35, 1 mM DTT, and 0.1% bovine gamma globulin) prior to addition to test compounds. A fluorescent labeled probe based on an ATP competitive inhibitor (Kinase Tracer 236, Life Technologies PV5592) is added to a final concentration of 0.1 μM (micromolar). Reactions were carried out for one hour at room temperature in a final volume of 20 μL (microliter) in 384 well white ProxiPlates (Perkin Elmer 6008289). Binding of the tracer to the IRE1 protein alpha was detected in an Envision instrument (PerkinElmer) equipped with a TRF laser option and a LANCE/Delfia Dual/Bias D400/D630 mirror (Ex 347 nm, 1st Em 665 nm, 2nd Em 615 nm).
# Exemplary compounds depicted in Table 1 were tested in the IRE1α binding assays.
# T1 sequence (O75460 547-977 D688N): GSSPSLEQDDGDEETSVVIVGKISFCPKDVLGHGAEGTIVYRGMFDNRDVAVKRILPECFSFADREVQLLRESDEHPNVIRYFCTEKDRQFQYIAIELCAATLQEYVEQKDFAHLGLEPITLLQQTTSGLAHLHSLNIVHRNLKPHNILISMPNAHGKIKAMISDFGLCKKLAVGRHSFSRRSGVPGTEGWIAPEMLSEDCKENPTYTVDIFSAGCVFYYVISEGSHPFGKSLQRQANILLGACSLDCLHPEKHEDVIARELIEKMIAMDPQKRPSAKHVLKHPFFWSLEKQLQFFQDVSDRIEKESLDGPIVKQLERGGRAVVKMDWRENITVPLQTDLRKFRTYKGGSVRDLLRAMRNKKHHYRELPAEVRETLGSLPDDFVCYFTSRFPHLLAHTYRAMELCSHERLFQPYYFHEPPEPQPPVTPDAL
row,Structure (SMILES),IC50
1,"CCCS(=O)(=O)Nc1cccc2c(Oc3nnccc3-c3ccnc(N[C@H]4CCCNC4)n3)c(C)ccc12 [Compound 3, (S)-N-(6-methyl-5-((4-(2-(piperidin-3-ylamino)pyrimidin-4-yl)pyridazin-3-yl)oxy)naphthalen-1-yl)propane-1-sulfonamide]",12 nM
2,"Cc1ccc2c(NS(=O)(=O)CCC(C)(F)F)c(F)ccc2c1Oc1nnccc1-c1ccnc(N[C@@H]2CNC[C@@H](F)C2)n1 [Compound 5, 3,3-difluoro-N-[2-fluoro-6-methyl-5-[4-[2-[[-(3S,5S)-5-fluoro-3-piperidyl]amino]pyrimidin-4-yl]pyridazin-3-yl]oxy-1-naphthyl]butane-1-sulfonamide]",3.1 nM
3,"CCCS(=O)(=O)Nc1c(F)ccc2c(Oc3nnccc3-c3ccnc(N[C@@H]4CNC[C@@H](F)C4)n3)c(C)ccc12 [Compound 6, N-(2-fluoro-5-((4-(2-(((3S,5S)-5-fluoropiperidin-3-yl)amino)pyrimidin-4-yl)pyridazin-3-yl)oxy)-6-methylnaphthalen-1-yl)propane-1-sulfonamide]",7.1 nM

# More lines, now with the values ahead:
row,IC50,Structure (SMILES)
1,38 nM,"Cc1ccc2c(NC(=O)C3CC3)cccc2c1Oc1nnccc1-c1ccnc(N[C@H]2CCCNC2)n1 [Compound 2, (S)-N-(6-methyl-5-((4-(2-(piperidin-3-ylamino)pyrimidin-4-yl)pyridazin-3-yl)oxy)naphthalen-1-yl)cyclopropanecarboxamide]"
2,6.1 nM,"Cc1ccc2c(NS(=O)(=O)c3ccccc3Cl)cccc2c1Oc1nnccc1-c1ccnc(N[C@H]2CCCNC2)n1 [Compound 1, (S)-2-chloro-N-(6-methyl-5-((4-(2-(piperidin-3-ylamino)pyrimidin-4-yl)pyridazin-3-yl)oxy)naphthalen-1-yl)benzenesulfonamide]"
3,3.3 nM,"CCCS(=O)(=O)Nc1c(F)ccc2c(Oc3ncncc3-c3ccnc(N[C@@H]4CNC[C@@H](F)C4)n3)c(C)ccc12 [Compound 4, N-(2-fluoro-5-((2-(((3S,5S)-5-fluoropiperidin-3-yl)amino)-[4,5′-bipyrimidin]-4′-yl)oxy)-6-methylnaphthalen-1-yl)propane-1-sulfonamide]"

# Test system: cells
# Experiment: not given
# Settings: high levels; cited from earlier work
row,Structure (SMILES),toxicity in cells
1,Cc1cc(=O)oc2c(C=O)c(O)ccc12 [Compound 4μ8C],no measurable toxicity
